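Briefly, cells in 96-well plates were exposed to five compound concentrations for 48 h, and endpoints were estimated by linear interpolation. The concentration for 50% growth inhibition is given as GI50.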 Calls of active or inactive are those of the source. Cut-off read from the data, not from the text of the source: active = GI50 up to about 1.1 µM and inactive = higher.
Key:
Assay in all cases: inhibition of tumour cell growth, NCI panel, 48 h
OVCAR-5 = tested on: OVCAR-5
BT-549 = tested on: BT-549
NCI-H226 = tested on: NCI-H226
MDA-MB-231 = tested on: MDA-MB-231
SF-539 = tested on: SF-539
ACHN = tested on: ACHN
Hs-578T = tested on: Hs-578T
HOP-62 = tested on: HOP-62
SW-620 = tested on: SW-620
SK-MEL-5 = tested on: SK-MEL-5
KM12 = tested on: KM12
UO-31 = tested on: UO-31
DU-145 = tested on: DU-145
PC-3 = tested on: PC-3
SK-MEL-2 = tested on: SK-MEL-2
HOP-92 = tested on: HOP-92
NCI-H522 = tested on: NCI-H522
RXF 393 = tested on: RXF 393

Measured: GI50

CC1=C(CCC(C)CO)O[C@H]2C[C@H]3[C@@H]4CC[C@H]5C[C@@H](O)CC[C@]5(C)[C@H]4CC(=O)[C@]3(C)[C@@H]12 (stereo partly drawn)
inactive: OVCAR-5 27.4 µM | BT-549 16 µM | NCI-H226 27.2 µM | MDA-MB-231 18.1 µM | SF-539 19.2 µM | ACHN 17.5 µM | Hs-578T 17.1 µM | HOP-62 9.27 µM | SW-620 35.6 µM | SK-MEL-5 8.18 µM | KM12 11.3 µM | UO-31 12.4 µM | DU-145 20.6 µM | PC-3 5.08 µM | SK-MEL-2 11.7 µM | HOP-92 23.9 µM | NCI-H522 9.62 µM | RXF 393 29.1 µM

O=C(N/N=C\c1ccc([N+](=O)[O-])s1)c1ccncc1
inactive: OVCAR-5 29.9 µM | BT-549 11.3 µM | NCI-H226 5.15 µM | MDA-MB-231 18.8 µM | SF-539 6.28 µM | ACHN 18.3 µM | Hs-578T 15.8 µM | HOP-62 14.4 µM | SW-620 10.8 µM | SK-MEL-5 3.25 µM | KM12 10 µM | UO-31 17.2 µM | DU-145 20.7 µM | PC-3 11.6 µM | SK-MEL-2 18.2 µM | HOP-92 15.6 µM | NCI-H522 4.75 µM | RXF 393 16.9 µM

NC(=S)Nc1nc(=S)[nH]c2c1SC1=N/C(=C\c3ccco3)C(=O)N12
inactive: OVCAR-5 > 100 µM | BT-549 > 100 µM | NCI-H226 > 47.8 µM | MDA-MB-231 > 100 µM | SF-539 > 77.6 µM | ACHN > 100 µM | Hs-578T > 100 µM | HOP-62 > 100 µM | SW-620 > 100 µM | SK-MEL-5 > 82.8 µM | KM12 98.6 µM | UO-31 > 100 µM | DU-145 > 100 µM | PC-3 > 100 µM | SK-MEL-2 > 83.4 µM | HOP-92 > 100 µM | NCI-H522 27 µM | RXF 393 > 100 µM

Cn1ncc(NCCn2cnc3c2c(=O)n(C)c(=O)n3C)c(Cl)c1=O
inactive: OVCAR-5 > 100 µM | BT-549 > 100 µM | NCI-H226 > 100 µM | MDA-MB-231 > 100 µM | SF-539 > 100 µM | ACHN > 100 µM | Hs-578T > 100 µM | HOP-62 > 100 µM | SW-620 > 100 µM | SK-MEL-5 > 100 µM | KM12 > 100 µM | UO-31 > 100 µM | DU-145 > 100 µM | PC-3 > 100 µM | SK-MEL-2 > 100 µM | HOP-92 > 100 µM | NCI-H522 > 100 µM | RXF 393 > 100 µM

CC1CN=C(Nc2ccccc2)S1 (stereo not drawn)
inactive: OVCAR-5 > 100 µM | BT-549 > 100 µM | NCI-H226 > 100 µM | MDA-MB-231 > 100 µM | SF-539 > 100 µM | ACHN > 100 µM | Hs-578T > 100 µM | HOP-62 > 100 µM | SW-620 > 100 µM | SK-MEL-5 > 100 µM | KM12 > 100 µM | UO-31 56.8 µM | DU-145 > 100 µM | PC-3 > 100 µM | SK-MEL-2 > 100 µM | HOP-92 > 100 µM | NCI-H522 > 100 µM | RXF 393 > 100 µM

Nc1nc(SCC(=O)O)nc(O)c1N
inactive: OVCAR-5 > 100 µM | BT-549 > 100 µM | NCI-H226 > 100 µM | MDA-MB-231 > 100 µM | SF-539 > 100 µM | ACHN > 100 µM | Hs-578T > 100 µM | HOP-62 > 100 µM | SW-620 31 µM | SK-MEL-5 > 100 µM | KM12 > 100 µM | UO-31 > 100 µM | DU-145 > 100 µM | PC-3 > 100 µM | SK-MEL-2 > 100 µM | HOP-92 > 100 µM | NCI-H522 > 100 µM | RXF 393 > 100 µM

Reference: ChEMBL document CHEMBL1201862, “PubChem BioAssay data set” (2004)
